Laboratory results from ChEMBL document CHEMBL5291721, “A preclinical secondary pharmacology resource illuminates target-adverse drug reaction associations of marketed drugs” (Nat Commun, 2023).

Experiments:
[1] = target: Sodium-dependent dopamine transporter (Homo sapiens, UniProt Q01959)
[2] = target: T1, Muscarinic acetylcholine receptor M1 (Homo sapiens, UniProt P11229); format: functional
T1 sequence (P11229 whole entry): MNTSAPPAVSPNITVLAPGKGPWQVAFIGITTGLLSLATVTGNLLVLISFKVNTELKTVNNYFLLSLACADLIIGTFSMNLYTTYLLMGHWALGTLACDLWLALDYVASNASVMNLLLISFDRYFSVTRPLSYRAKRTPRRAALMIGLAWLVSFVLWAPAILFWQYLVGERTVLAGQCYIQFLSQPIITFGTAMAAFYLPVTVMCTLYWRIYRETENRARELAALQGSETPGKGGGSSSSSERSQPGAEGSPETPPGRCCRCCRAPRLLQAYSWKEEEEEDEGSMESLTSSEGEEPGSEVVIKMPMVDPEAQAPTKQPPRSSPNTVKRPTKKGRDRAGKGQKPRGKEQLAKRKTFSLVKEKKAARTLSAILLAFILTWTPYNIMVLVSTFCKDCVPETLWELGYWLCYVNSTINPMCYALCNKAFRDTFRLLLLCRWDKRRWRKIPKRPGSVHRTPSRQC

[3] = target: 5-hydroxytryptamine receptor 2B (Homo sapiens, UniProt P41595); format: functional, cell-based
Chain of 5-hydroxytryptamine receptor 2B (P41595 whole entry): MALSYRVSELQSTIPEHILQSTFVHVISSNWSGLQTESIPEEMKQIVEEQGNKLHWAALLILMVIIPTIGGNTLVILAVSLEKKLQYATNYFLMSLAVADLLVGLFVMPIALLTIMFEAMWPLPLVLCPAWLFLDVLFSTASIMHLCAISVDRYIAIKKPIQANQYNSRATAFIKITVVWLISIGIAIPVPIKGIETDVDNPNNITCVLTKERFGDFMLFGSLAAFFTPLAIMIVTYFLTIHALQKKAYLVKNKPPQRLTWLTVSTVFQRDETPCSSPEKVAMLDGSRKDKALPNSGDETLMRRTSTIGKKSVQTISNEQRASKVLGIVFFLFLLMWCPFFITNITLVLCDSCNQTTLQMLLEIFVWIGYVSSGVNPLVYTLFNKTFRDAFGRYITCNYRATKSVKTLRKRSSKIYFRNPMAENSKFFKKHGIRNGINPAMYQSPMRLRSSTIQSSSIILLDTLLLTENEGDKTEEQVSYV

[4] = target: T2, B2 bradykinin receptor (Homo sapiens, UniProt P30411)
T2 sequence (P30411 whole entry): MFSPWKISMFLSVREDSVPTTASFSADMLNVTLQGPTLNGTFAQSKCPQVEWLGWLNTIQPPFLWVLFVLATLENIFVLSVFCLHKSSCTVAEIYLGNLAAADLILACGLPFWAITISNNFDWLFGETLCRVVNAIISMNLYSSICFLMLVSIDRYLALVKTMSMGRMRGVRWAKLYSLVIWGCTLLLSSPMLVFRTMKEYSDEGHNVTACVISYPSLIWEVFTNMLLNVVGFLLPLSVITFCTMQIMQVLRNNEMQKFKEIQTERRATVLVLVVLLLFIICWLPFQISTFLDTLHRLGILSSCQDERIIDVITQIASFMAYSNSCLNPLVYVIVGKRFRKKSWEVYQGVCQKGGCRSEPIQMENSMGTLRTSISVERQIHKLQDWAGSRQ

[5] = target: T3, Endothelin-1 receptor (Homo sapiens, UniProt P25101)
T3 sequence (P25101 whole entry): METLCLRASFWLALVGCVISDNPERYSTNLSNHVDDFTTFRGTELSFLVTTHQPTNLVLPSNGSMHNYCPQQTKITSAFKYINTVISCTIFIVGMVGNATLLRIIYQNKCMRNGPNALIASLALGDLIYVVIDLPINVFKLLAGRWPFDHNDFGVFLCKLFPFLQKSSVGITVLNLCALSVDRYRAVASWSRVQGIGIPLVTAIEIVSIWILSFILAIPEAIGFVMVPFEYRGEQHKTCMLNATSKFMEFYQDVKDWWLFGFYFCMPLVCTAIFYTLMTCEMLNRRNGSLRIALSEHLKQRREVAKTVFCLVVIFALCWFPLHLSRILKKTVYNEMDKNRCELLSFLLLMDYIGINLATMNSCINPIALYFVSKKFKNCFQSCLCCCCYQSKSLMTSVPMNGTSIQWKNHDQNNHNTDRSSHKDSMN

[6] = target: Voltage-gated inwardly rectifying potassium channel KCNH2 (Homo sapiens, UniProt Q12809); format: functional; settings: read-out: AC50
Chain of Voltage-gated inwardly rectifying potassium channel KCNH2 (Q12809 whole entry): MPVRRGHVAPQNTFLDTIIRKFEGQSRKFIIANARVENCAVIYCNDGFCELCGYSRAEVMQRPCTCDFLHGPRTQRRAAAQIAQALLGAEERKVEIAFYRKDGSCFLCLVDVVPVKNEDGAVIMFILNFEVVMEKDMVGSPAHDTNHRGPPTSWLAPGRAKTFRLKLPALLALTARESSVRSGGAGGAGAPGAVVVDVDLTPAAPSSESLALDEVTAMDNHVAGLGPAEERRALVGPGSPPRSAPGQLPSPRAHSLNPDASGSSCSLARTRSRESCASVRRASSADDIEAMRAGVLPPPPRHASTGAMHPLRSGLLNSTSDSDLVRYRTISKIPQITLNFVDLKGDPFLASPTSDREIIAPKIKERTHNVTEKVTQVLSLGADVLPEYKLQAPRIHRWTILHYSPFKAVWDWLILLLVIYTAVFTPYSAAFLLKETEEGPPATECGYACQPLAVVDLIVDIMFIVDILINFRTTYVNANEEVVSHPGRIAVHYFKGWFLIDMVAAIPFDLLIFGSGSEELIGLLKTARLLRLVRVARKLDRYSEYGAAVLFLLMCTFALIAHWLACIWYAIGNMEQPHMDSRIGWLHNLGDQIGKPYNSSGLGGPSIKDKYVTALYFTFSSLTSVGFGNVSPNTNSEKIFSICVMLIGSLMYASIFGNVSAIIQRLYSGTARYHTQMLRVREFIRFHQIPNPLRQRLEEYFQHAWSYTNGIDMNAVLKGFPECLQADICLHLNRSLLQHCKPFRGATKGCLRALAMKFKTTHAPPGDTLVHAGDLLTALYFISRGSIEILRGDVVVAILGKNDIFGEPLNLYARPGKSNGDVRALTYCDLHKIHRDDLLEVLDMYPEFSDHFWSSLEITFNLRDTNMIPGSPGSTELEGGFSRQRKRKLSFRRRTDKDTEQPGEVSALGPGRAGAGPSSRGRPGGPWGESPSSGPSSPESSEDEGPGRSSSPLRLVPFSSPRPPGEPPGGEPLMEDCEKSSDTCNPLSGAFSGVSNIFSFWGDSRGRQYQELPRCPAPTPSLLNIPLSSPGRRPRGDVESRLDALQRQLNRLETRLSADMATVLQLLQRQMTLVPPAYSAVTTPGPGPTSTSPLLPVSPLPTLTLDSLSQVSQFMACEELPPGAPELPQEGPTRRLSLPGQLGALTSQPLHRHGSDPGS

[7] = target: Gamma-aminobutyric acid receptor subunit alpha-1 (Rattus norvegicus, UniProt P62813)
Chain of Gamma-aminobutyric acid receptor subunit alpha-1 (P62813 whole entry): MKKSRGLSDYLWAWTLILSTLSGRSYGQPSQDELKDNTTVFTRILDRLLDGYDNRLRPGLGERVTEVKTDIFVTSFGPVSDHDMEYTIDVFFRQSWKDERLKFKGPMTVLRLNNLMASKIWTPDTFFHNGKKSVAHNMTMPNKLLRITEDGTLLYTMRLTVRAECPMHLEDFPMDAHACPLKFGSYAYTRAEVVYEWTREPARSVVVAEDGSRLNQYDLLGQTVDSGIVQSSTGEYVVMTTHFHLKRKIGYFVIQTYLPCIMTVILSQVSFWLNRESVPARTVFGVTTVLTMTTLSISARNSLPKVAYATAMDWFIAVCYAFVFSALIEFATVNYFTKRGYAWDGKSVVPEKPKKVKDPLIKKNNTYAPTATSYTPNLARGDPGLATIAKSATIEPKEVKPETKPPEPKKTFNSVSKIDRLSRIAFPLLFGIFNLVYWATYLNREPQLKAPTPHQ

[8] = target: Histamine H1 receptor (Homo sapiens, UniProt P35367)
[9] = target: T4, Prostaglandin G/H synthase 1 (Rattus norvegicus, UniProt Q63921); format: functional
T4 sequence (Q63921 whole entry): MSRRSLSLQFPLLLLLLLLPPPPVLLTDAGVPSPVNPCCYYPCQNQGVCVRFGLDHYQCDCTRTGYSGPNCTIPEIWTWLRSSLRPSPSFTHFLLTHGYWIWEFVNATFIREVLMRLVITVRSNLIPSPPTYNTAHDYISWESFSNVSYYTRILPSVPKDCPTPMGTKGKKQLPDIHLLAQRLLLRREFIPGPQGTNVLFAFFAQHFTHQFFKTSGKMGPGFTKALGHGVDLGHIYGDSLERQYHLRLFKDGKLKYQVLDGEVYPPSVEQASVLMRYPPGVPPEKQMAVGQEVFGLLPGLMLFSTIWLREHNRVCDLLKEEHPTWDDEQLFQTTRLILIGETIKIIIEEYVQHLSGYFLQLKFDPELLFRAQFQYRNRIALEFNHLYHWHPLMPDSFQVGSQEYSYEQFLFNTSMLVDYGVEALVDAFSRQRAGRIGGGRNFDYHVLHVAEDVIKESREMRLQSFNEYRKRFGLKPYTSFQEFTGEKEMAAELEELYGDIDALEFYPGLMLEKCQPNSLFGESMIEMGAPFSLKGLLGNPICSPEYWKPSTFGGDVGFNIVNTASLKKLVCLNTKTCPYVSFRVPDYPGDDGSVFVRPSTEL

[10] = target: Neuronal acetylcholine receptor subunit alpha-4 (Homo sapiens, UniProt P43681)
Chain of Neuronal acetylcholine receptor subunit alpha-4 (P43681 whole entry): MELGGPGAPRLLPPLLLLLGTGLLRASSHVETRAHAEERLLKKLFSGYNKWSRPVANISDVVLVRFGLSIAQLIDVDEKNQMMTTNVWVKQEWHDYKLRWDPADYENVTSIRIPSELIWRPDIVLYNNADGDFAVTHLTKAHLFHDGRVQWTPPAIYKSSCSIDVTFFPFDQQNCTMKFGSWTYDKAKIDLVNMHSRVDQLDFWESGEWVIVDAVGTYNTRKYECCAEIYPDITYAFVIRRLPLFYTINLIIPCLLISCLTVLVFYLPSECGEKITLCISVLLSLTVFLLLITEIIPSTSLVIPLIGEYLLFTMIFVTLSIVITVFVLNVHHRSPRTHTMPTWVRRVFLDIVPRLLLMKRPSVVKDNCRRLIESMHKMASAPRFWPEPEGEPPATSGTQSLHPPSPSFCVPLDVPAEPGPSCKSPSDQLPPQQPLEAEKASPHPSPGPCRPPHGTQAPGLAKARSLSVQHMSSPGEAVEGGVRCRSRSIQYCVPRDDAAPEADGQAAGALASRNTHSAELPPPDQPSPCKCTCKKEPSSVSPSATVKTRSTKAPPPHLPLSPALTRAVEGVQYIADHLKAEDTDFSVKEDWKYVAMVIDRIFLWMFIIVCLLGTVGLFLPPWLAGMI

[11] = target: T5, 5-hydroxytryptamine receptor 1A (Homo sapiens, UniProt P08908); format: functional, cell-based
T5 sequence (P08908 whole entry): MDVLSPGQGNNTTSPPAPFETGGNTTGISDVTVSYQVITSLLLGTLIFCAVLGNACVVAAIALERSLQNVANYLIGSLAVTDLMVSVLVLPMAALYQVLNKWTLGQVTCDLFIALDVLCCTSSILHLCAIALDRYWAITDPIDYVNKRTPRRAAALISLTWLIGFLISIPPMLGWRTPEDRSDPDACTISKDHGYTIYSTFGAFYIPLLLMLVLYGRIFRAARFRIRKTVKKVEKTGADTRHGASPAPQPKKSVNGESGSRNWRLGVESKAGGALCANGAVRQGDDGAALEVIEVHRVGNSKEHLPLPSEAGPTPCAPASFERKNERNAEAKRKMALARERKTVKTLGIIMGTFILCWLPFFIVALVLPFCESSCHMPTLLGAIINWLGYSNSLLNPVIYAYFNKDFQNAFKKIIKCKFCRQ

[12] = target: Melanocortin receptor 3 (Homo sapiens, UniProt P41968)
[13] = target: Voltage-dependent L-type calcium channel subunit alpha-1C (Rattus norvegicus, UniProt P22002); format: functional
Chain of Voltage-dependent L-type calcium channel subunit alpha-1C (P22002 whole entry): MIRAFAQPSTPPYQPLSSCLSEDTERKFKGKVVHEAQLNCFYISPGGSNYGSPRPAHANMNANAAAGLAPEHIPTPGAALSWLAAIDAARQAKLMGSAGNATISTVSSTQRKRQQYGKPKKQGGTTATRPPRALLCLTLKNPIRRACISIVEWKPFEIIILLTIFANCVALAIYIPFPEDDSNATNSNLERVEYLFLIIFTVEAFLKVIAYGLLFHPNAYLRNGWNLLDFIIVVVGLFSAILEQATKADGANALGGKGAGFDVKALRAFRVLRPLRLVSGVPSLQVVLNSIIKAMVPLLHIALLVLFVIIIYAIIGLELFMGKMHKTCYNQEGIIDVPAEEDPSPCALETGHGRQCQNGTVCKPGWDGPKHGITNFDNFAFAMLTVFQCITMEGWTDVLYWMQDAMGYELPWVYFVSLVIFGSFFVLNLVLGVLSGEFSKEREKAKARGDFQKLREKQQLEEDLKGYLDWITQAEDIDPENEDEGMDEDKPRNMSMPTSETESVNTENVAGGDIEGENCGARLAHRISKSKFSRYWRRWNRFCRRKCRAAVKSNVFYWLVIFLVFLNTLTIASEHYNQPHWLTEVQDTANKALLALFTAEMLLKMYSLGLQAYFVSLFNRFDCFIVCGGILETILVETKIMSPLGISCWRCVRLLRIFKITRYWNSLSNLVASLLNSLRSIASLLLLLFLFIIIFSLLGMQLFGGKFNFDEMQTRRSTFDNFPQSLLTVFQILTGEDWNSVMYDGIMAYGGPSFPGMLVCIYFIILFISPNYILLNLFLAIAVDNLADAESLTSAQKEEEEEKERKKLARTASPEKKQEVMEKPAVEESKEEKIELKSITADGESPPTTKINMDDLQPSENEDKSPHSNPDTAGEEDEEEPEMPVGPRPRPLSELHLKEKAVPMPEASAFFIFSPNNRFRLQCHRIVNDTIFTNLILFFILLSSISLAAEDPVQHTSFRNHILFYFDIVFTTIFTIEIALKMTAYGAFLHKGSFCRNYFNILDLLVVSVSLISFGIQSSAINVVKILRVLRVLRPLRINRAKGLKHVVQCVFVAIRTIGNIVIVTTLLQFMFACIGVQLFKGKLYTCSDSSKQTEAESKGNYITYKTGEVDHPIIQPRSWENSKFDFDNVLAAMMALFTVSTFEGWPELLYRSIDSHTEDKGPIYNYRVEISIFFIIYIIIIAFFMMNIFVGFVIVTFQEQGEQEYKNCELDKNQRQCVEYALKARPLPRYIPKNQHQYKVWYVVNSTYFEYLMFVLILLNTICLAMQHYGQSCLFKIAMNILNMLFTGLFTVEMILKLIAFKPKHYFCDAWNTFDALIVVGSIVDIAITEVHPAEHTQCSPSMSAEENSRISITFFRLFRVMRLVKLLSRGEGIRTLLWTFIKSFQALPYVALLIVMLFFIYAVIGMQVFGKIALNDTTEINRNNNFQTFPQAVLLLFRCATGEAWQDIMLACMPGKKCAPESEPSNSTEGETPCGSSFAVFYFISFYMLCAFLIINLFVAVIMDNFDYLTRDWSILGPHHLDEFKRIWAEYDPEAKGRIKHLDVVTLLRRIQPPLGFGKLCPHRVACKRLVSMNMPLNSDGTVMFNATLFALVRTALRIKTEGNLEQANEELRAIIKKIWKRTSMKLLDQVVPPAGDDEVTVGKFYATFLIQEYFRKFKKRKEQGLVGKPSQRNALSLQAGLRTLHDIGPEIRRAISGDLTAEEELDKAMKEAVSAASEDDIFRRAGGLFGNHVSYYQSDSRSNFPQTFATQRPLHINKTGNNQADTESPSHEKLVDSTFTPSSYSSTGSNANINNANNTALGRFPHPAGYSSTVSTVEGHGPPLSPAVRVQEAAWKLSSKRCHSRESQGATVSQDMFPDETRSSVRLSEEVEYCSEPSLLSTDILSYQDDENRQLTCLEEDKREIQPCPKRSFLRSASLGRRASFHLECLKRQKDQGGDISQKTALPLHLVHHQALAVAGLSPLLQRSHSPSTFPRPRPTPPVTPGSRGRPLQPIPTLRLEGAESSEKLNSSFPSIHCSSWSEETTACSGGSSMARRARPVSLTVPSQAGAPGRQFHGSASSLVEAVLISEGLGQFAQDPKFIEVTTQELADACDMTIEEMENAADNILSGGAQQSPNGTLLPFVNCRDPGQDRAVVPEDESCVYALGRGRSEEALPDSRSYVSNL

Measured: AC50
Also: assay procedure not described here.

Clc1ccc(CCCOCCCN2CCCCC2)cc1 [PITOLISANT]
11 µM: [8]
8.5 µM: [1]
1.7 µM: [6]
not listed: [13]
> 30 µM: all other assays above

CO/N=C(\C(=O)N[C@@H]1C(=O)N2C(C(=O)O)=C(CSc3nnnn3C)CS[C@H]12)c1csc(N)n1 [CEFMENOXIME]
not listed: [7] | [13]
> 30 µM: all other assays above

Cc1ccc(-n2nccn2)c(C(=O)N2CCN(c3nc4cc(Cl)ccc4o3)CC[C@H]2C)c1 [SUVOREXANT]
22 µM: [6]
> 10 µM: [1]
not listed: [13]
> 30 µM: all other assays above

Cn1c(=O)c2c(ncn2CC2OCCO2)n(C)c1=O [DOXOFYLLINE]
not listed: [2] | [8]
> 30 µM: all other assays above

CNC(C)CCC=C(C)C (stereo not drawn) [ISOMETHEPTENE]
> 30 µM: [1] | [4] | [5] | [6] | [9] | [10] | [12]

CC(=O)O[C@H]1CC[C@@]2(C)C(=CC[C@@H]3[C@@H]2CC[C@]2(C)C(c4cccnc4)=CC[C@@H]32)C1 [ABIRATERONE ACETATE]
not listed: [3] | [4] | [7] | [13]
> 30 µM: all other assays above

C/C(O)=C(\C#N)C(=O)Nc1ccc(C(F)(F)F)cc1 [TERIFLUNOMIDE]
not listed: [4] | [7] | [13]
> 30 µM: all other assays above

CCOC(=O)OC(C)OC1=C(C(=O)Nc2ccccn2)N(C)S(=O)(=O)c2ccccc21 (stereo not drawn) [AMPIROXICAM]
not listed: [2] | [8]
> 30 µM: all other assays above

CCN1CCN(C(=O)N[C@@H](C(=O)N[C@@H]2C(=O)N3C(C(=O)O)=C(CSc4nnnn4C)CS[C@H]23)c2ccc(O)cc2)C(=O)C1=O [CEFOPERAZONE]
not listed: [7] | [13]
> 30 µM: all other assays above

Nc1nc(N)nc(-c2cc(Cl)ccc2Cl)n1 [IRSOGLADINE]
not listed: [2] | [7] | [8] | [13]
> 30 µM: all other assays above

CC(=O)O[C@H]1C[C@@H]2CC[C@@H]3[C@H](CC[C@@]4(C)[C@H]3C[C@H]([N+]3(C)CCCCC3)[C@@H]4OC(C)=O)[C@@]2(C)C[C@@H]1N1CCCCC1 [VECURONIUM]
14 µM: [9]
10.4 µM: [6]
not listed: [2] | [8]
> 30 µM: all other assays above

CCC1(CC)C(=O)NCC(C)C1=O (stereo not drawn) [METHYPRYLON]
not listed: [13]
> 30 µM: all other assays above

CCN(CC)C(=O)N[C@H]1C[C@@H]2c3cccc4[nH]cc(c34)C[C@H]2N(C)C1 [TERGURIDE]
2.1 µM: [8]
0.18 µM: [11]
18 µM: [6]
not listed: [13]
> 30 µM: all other assays above

CNS(=O)(=O)Cc1ccc2[nH]cc(CCN(C)C)c2c1
> 10 µM: [1] | [13]
13 µM: [3]
> 30 µM: [4] | [5] | [6] | [7] | [9] | [12]

CN1CCN(CC/C=C2/c3ccccc3Sc3ccc(S(=O)(=O)N(C)C)cc32)CC1 [THIOTHIXENE]
> 10 µM: [2] | [3] | [13] | [7]
1.63 µM: [6]
6.26 µM: [1]
> 30 µM: [4] | [5] | [9] | [12]

CCCN(CCC)C(=O)C(CCC(=O)O)NC(=O)c1ccccc1 (stereo not drawn) [PROGLUMIDE]
> 10 µM: [3] | [13] | [7] | [11]
not listed: [2] | [8]
> 30 µM: all other assays above
